From article PMC9400870 (2022)

What was measured:
[1] = system: p(dAdT)2 (DNA, polymer) AT; assay: UV thermal denaturation, 260 nm; conditions: Na+ (sodium cacodylate, I = 0.05 M), pH 7, polynucleotide 2×10^-5 M, per base
[2] = system: pApU (RNA, polymer) A/U; assay: UV thermal denaturation, 260 nm; conditions: Na+ (sodium cacodylate, I = 0.05 M), pH 7, per base
[3] = system: p(dAdT)2 (DNA, polymer) AT; assay: fluorimetric titration, Scatchard fit; conditions: Na+ (sodium cacodylate, I = 0.05 M); pH 7.0; compound 5×10^-7 M; n fixed at 0.1; per base
[4] = system: p(dGdC)2 (DNA, polymer) GC; assay: fluorimetric titration, Scatchard fit; conditions: Na+ (sodium cacodylate, I = 0.05 M); pH 7.0; compound 5×10^-7 M; n fixed at 0.1; per base
[5] = system: pApU (RNA, polymer) A/U; assay: fluorimetric titration, Scatchard fit; conditions: Na+ (sodium cacodylate, I = 0.05 M); pH 7.0; compound 5×10^-7 M; n fixed at 0.1; per base
[6] = r [compound]/[polynucleotide] = 0.3

Row | ΔTm [1, 6] [°C] | ΔTm [2, 6] [°C] | log Ks [3] [M^-1] | log Ks [4] [M^-1] | log Ks [5] [M^-1] | ΔTm ([1]; r [compound]/[polynucleotide] = 0.2) [°C] | ΔTm ([2]; r [compound]/[polynucleotide] = 0.2, polynucleotide 2×10^-5 M) [°C] | Compound
1 | 7.0 ± 0.5 | 1.0 ± 0.5 | 5.2 | 5.1 | 5.0 | – | – | C[n+]1ccc(C#Cc2c(F)c(F)c(C#Cc3cc[n+](C)cc3)c(F)c2F)cc1
2 | – | – | 6.6 | 7.0 | 5.3 | 37 ± 0.5 | 39.0 ± 0.5 | C[n+]1ccc(C#Cc2c3ccccc3c(C#Cc3cc[n+](C)cc3)c3ccccc23)cc1
3 | 2.0 ± 0.5 | 0 ± 0.5 | 4.5 | 5.9 | 5.3 | – | – | C[n+]1ccc(C#Cc2ccc(C#Cc3cc[n+](C)cc3)cc2)cc1
